{"source": "patent US9187728B2", "about": "“Method for producing hematopoietic stem cells” (Nissan Chemical Industries, Ltd., priority 2010, dated 2015)", "key": {"CD34+CD38- cells": {"tested_on": "CD34+CD38- cells", "assay": "Expansion of CD34+CD38- cells using human cord blood-derived CD34+ cells (liquid culture, flow cytometry)", "type": "cell-based", "details": "for expansion activity on hematopoietic stem cells: general statement, compared with the other specific compounds; for expansion activity on CD34+CD38- cells: 7 days", "procedure": "(§1) Human cord blood-derived CD34^+ cells were purchased from Lonza and plated on a 24-well plate (Corning) (10000 cells/1 mL/well). As the culture medium, StemSpan SFEM (StemCell Technologies) containing 100 ng/mL SCF (Wako Pure Chemical Industries) and 20 ng/mL TPO (PeproTech) in terms of final concentration was used, and garcinol (COSMO BIO) dissolved in dimethyl sulfoxide was added to the medium in an amount of 0.1% (v/v) to a final concentration of 5 or 10 μM. Similarly, isogarcinol (Reference Synthetic Example 1) dissolved in dimethyl sulfoxide was added to the medium in an amount of 0.1% (v/v) to a final concentration of 2 or 5 μM. As a negative control, the medium containing 0.1% (v/v) dimethyl sulfoxide was used.\nAfter the cells were incubated in liquid culture at 37° C. for 7 days in a CO2 incubator (5% CO2), the number of viable cells was counted by trypan blue assay. The number of CD34^+CD38^− cells was calculated as follows. After the incubation, the cells in the liquid culture was stained with a CD34 antibody (APC, Becton, Dickinson and Company) and a CD38 antibody (P E, Becton, Dickinson and Company), then washed with PBS(−) containing 2% (v/v) FBS and stained with propidium iodide (Sigma-Aldrich Japan) added to a final concentration of 5 μg/mL. The stained cells were analyzed with a BD FACSCANTO™ II flow cytometer (Becton, Dickinson and Company) to determined the proportions of CD34^+ cells and CD34^+CD38^− cells, which was multiplied by the number of viable cells to calculate the numbers of CD34^+ cells and CD34^+CD38^− cells.\nHuman cord blood-derived CD34^+ cells purchased from the same supplier as in Assay Example 1 were plated on a 24-well plate (Corning) (10000 cells/1 mL/well). As the culture medium, StemSpan SFEM (StemCell Technologies) containing 100 ng/mL SCF (Wako Pure Chemical Industries) and 20 ng/mL TPO (PeproTech) in terms of final concentration was used, and O-monomethylisogarcinol (Reference Synthetic Example 2) dissolved in dimethyl sulfoxide was added to the medium to a final concentration of 1 or 2 μM.\n(§2) After the cells were incubated in liquid culture at 37° C. for 7 days in a CO2 incubator (5% CO2), the number of viable cells was counted by trypan blue assay. The number of CD34^+CD38^− cells was calculated in the same manner as in Assay Example 1.\nHuman cord blood-derived CD34^+ cells purchased from the same supplier as in Assay Example 1 were plated on a 24-well plate (Corning) (10000 cells/1 mL/well). […]"}, "HPP-CFC colonies": {"tested_on": "HPP-CFC colonies", "assay": "Expansion of HPP-CFU using human cord blood-derived CD34+ cells (blood cell colony forming assay)", "type": "cell-based", "details": "then 500 cells/dish MethoCult GF H4435, 12 days, None = 19", "procedure": "The effects of garcinol and isogarcinol as compounds of the present invention on hematopoietic progenitor cells were measured by blood cell colony forming assay. The liquid cell cultures obtained in Assay Example 1 were poured into 3.5-cm Petri dishes with MethoCult GF H4435 culture medium (StemCell Technologies) at 500 cells/dish and incubated in a CO2 incubator (5% CO2, 37° C.) for 12 days. The number of HPP-CFC colonies in each plate was counted under a microscope routinely. The assay was carried out at least in duplicate, and the numbers of HPP-CFC colonies were averaged."}, "CD34+ cells": {"tested_on": "CD34+ cells", "assay": "Expansion of CD34+ cells using human cord blood-derived CD34+ cells (liquid culture, flow cytometry)", "type": "cell-based", "details": "Assay Example 2; 1 or 2 μM; 100 ng/mL SCF + 20 ng/mL TPO; 7 days", "procedure": "as §1, with “As a negative control, the medium containing 0.1% (v/v) dimethyl sulfoxide was used.” left out\nAfter the cells were incubated in liquid culture at 37° C. for 7 days in a CO2 incubator (5% CO2), the number of viable cells was counted by trypan blue assay. The number of CD34^+CD38^− cells was calculated as follows. […] The stained cells were analyzed with a BD FACSCANTO™ II flow cytometer (Becton, Dickinson and Company) to determined the proportions of CD34^+ cells and CD34^+CD38^− cells, which was multiplied by the number of viable cells to calculate the numbers of CD34^+ cells and CD34^+CD38^− cells. […]\nas §2"}, "[1]": {"tested_on": "SCID-repopulating cells (SRC)", "assay": "Transplantation of cell culture into immunodeficient (NOD/SCID) mice (SRC assay)", "type": "in vivo, human", "details": "CD34+ cells cultured with 10 μM, transplanted into irradiated NOD/SCID mice, 8 weeks; vs cells cultured without compound (FIG. 5)", "procedure": "Human cord blood-derived CD34^+ cells cultured in the presence of 10 μM garcinol (COSMO BIO) in terms of final concentration or in the absence of garcinol (i.e., in a culture medium containing 0.1% (v/v) dimethyl sulfoxide) in the same manner as in Assay Example 1 were transplanted into at least five 7- to 8-week-old NOD/SCID mice by tail vein injection at 4 to 5×10^4 cells/mouse in terms of the initial number of CD34^+ cells after a sublethal dose of irradiation (2.5 Gy). Eight weeks after the transplantation, the mice were killed, and the bone marrow cells were collected from both thighbones. Subsequently, the bone marrow cells were stained with a human CD45 antibody (APC, Becton, Dickinson and Company), then washed with PBS(−) containing 2%(v/v) FBS and stained with propidium iodide (Sigma-Aldrich Japan) added to a final concentration of 5 μg/mL. The stained cells were analyzed by flow cytometry to determined the proportion of human CD45^+ cells in the bone marrow cells."}}}
{"compound": "CC(C)=CC[C@H]1C[C@@]23C[C@@H](CC=C(C)C)C(C)(C)[C@@](CC=C(C)C)(C(=O)C(C(=O)c4ccc(O)c(O)c4)=C2OC1(C)C)C3=O", "note": "[isogarcinol, Isogarcinol]", "values": [{"measurement": "expansion activity on hematopoietic stem cells", "setting": "CD34+CD38- cells", "result": "especially strong expansion activity"}, {"measurement": "Number of HPP-CFC colonies", "setting": "HPP-CFC colonies; 5 μM in 7-day liquid culture (SCF+TPO)", "result": 42}]}
{"compound": "COc1ccc(C(=O)C2=C3OC(C)(C)[C@@H](CC=C(C)C)C[C@@]34C[C@@H](CC=C(C)C)C(C)(C)[C@@](CC=C(C)C)(C2=O)C4=O)cc1O", "note": "[O-monomethylisogarcinol, O-Monomethylisogarcinol]", "values": [{"measurement": "expansion activity on CD34+CD38- cells", "setting": "CD34+CD38- cells; Assay Example 2, 1 or 2 μM, 100 ng/mL SCF + 20 ng/mL TPO, vs absence of compound (FIG. 3)", "result": "excellent expansion activity"}, {"measurement": "expansion activity on CD34+ cells", "setting": "CD34+ cells", "result": "excellent expansion activity"}]}
{"compound": "C=C(C)[C@@H](CC=C(C)C)C[C@@]12C[C@@H](CC=C(C)C)C(C)(C)[C@@](CC=C(C)C)(C(=O)C(C(=O)c3ccc(O)c(O)c3)=C1O)C2=O", "note": "[garcinol, Garcinol]", "values": [{"measurement": "SRC expanding effect (proportion of human CD45+ cells in bone marrow)", "setting": "[1]", "result": "excellent SRC expanding effect"}, {"measurement": "expansion activity on CD34+CD38- cells", "setting": "CD34+CD38- cells; Assay Example 3, 10 μM, in the presence of SCF, SCF and TPO, or SCF, TPO and FL, compared with absence of the compound (FIG. 4)", "result": "higher expansion activity"}, {"measurement": "expansion activity on hematopoietic stem cells", "setting": "CD34+CD38- cells", "result": "especially strong expansion activity"}, {"measurement": "Number of HPP-CFC colonies", "setting": "HPP-CFC colonies; 10 μM in 7-day liquid culture (SCF+TPO)", "result": 35}]}
